{"source": "patent US12622916B2", "about": "“Use of H3K9me3 modulation for enhancing cognitive function” (THE REGENTS OF THE UNIVERSITY OF CALIFORNIA, priority 2015, dated 2026)", "key": {"[1]": {"target": "histone acetyltransferase p300 (Homo sapiens, UniProt Q09472)", "sequence (Q09472 whole entry, species assumed)": "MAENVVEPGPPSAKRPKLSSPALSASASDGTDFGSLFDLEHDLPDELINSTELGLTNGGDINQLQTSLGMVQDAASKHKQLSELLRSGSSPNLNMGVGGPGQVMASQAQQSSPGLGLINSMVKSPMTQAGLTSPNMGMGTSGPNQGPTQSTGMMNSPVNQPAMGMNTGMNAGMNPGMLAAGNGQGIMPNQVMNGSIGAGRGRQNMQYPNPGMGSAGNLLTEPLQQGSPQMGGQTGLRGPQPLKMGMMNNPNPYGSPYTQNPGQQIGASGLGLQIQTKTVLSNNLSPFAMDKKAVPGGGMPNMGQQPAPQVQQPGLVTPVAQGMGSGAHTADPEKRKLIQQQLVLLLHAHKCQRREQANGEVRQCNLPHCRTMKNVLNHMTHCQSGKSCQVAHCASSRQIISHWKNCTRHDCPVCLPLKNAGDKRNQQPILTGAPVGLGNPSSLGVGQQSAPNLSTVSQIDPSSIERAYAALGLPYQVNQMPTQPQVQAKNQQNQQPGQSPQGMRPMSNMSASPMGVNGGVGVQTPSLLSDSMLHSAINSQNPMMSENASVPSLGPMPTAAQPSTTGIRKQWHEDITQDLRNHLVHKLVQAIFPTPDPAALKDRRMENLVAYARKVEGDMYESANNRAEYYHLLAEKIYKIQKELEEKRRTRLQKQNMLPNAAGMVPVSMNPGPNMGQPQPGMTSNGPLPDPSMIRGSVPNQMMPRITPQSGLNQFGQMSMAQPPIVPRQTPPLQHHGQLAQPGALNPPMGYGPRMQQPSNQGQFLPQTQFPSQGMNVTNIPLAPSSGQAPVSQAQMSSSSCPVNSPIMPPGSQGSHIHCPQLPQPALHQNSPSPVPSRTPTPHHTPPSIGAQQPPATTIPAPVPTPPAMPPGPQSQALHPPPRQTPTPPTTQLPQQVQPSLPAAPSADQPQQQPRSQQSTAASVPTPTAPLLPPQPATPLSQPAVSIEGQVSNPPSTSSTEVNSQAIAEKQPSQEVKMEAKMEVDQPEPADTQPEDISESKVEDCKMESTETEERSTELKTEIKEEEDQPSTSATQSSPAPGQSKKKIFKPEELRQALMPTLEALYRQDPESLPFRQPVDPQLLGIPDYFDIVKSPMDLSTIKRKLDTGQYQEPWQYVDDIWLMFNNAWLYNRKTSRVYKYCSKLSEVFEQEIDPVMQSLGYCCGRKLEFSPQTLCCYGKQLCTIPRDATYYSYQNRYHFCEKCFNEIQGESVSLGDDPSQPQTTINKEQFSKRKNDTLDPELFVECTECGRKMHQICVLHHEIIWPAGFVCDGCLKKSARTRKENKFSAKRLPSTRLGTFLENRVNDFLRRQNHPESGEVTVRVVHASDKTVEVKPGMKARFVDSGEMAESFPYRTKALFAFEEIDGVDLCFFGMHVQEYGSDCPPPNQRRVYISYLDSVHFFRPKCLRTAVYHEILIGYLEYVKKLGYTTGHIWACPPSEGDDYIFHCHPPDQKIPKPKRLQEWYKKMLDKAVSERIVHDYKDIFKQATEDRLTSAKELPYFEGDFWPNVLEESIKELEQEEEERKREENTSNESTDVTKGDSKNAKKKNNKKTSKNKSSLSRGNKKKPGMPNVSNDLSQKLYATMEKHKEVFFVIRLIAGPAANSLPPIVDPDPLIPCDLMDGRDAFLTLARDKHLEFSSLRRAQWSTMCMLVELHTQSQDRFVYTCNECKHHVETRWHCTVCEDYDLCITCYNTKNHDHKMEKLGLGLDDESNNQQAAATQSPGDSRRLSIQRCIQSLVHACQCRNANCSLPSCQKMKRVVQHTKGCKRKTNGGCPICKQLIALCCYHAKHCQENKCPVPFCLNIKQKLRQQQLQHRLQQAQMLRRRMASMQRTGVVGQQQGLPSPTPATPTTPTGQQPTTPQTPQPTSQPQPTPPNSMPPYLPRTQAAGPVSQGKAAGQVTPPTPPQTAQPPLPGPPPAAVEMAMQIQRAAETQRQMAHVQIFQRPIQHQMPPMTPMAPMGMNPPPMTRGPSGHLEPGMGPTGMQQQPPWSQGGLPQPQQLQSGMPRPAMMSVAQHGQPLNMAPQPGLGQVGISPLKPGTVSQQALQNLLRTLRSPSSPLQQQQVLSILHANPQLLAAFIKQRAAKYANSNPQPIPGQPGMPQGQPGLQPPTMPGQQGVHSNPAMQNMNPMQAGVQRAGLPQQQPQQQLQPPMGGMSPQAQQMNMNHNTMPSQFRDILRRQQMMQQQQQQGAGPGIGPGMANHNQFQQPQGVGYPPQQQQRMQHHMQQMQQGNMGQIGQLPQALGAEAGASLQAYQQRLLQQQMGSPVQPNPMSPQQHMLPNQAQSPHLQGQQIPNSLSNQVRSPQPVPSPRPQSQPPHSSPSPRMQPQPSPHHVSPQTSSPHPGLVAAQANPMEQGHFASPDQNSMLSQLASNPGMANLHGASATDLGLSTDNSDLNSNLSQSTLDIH", "test": "Inhibitory activity towards histone acetyltransferase p300", "type": "biochemical", "description": "In accordance with one or more embodiments of the present invention, the role of H3K9me3 in learning and memory in an animal model of aging using a newly developed analog of the epidithiodiketopiperazine alkaloid chaetocin A called ETP69, illustrated in FIG. 1, is studied."}, "aged C57Bl/6J male mice": {"test_system": "aged C57Bl/6J male mice", "test": "Object location memory (OLM) task in aged mice", "type": "in vivo", "conditions": "for OLM retention: memory performance (exploration of novel versus familiar location): retention test 24 hours later", "method": "Object Location Memory (OLM): Training and testing procedures were performed using a standard OLM protocol. Briefly, 22 aged mice and 18 young mice were handled for about 2-3 minutes per day for 5 days, followed by habituation to the experimental apparatus (white rectangular open field measuring 30×23×21.5 cm) for 5 min per day for 5 consecutive days before training.\nDose Response in OLM: On the test day mice were given 3 minutes of habituation (in an empty test arena) followed by i.p. injection of ETP69 (10 mg/kg (n=8) or 20 mg/kg (n=7)) or vehicle (n=7). Mice were then given a 3-min acquisition trial (with 2 similar objects placed in the arena opposite each other) 30 minutes after the i.p. injection of drug or vehicle and all animals were then returned to their home cages for a 24 hour inter-trial interval. Twenty-four hours later, a 3-minute retention test was administered, where one object was moved to a novel location and the amount of time the animals spent exploring the novel versus familiar location was recorded in order to evaluate the dose response in the OLM task. Since animals that had received 10 mg/kg performed better than other groups in the OLM task, 10 mg/kg was used for the remainder of the study. This OLM paradigm has previously shown to be subthreshold for learning.\nAcquisition (pre-training) or Consolidation (post-training): In another test, aimed to determine the efficacy of the compound in pre and post training paradigms, the same group of 22 aged animals were retested on the OLM task 3 weeks after the first test. To determine whether the drug impacted acquisition or consolidation mechanisms, mice were injected with the 10 mg/kg compound (i.p. n=7) or vehicle (n=8). Animals were sacrificed right after retention testing (i.e. 24 hours post injection), and hippocampi were removed, rapidly frozen on dry ice, and stored at −80° C. until processing for trimethylation levels and BDNF assay. FIG. 2 is a graphical representation of the effect of the drug at 10 mg/kg and 20 mg/kg (i.p) administered 30 minutes prior to acquisition phase in the novel place position task in mice. […] Data are mean±SEM; n=7 or 8/group."}, "Arc": {"test_system": "Arc", "test": "Arc changes after ETP69 treatment (data not shown)", "type": "in vivo, mice"}, "H3K9me3": {"test_system": "H3K9me3", "test": "H3K9me3 level in cultured hippocampal neurons by Western blotting", "type": "cell-based", "method": "Next, we examined the effect of ETP69 on H3K9me3 levels in cultured hippocampal neurons. […] FIGS. 14A-B are illustrations of the effect of ETP69 on H3K9me3 levels in 14 DIV hippocampal neurons (FIG. 14A—gel image; FIG. 14B—quantification, n=3, *, p<0.05). As the illustrations show, ETP69 treatment (24 hours) decreased H3K9me3 level measured by Western blotting."}}, "note": "“Also recorded” adds a separate entry of the source.", "data": [{"smiles": "CN1C(=O)[C@@]23C[C@](C)(C#N)[C@H](c4ccc5c(c4)OCO5)N2C(=O)[C@]1(C)SS3", "note": "(racemic) [ETP69, Rac-(3S,6S,7S,8aS)-6-(benzo[d][1,3]dioxol-5-yl)-2,3,7-trimethyl-1,4-dioxohexahydro-6H-3,8a-epidithiopyrrolo[1,2-a]pyrazine-7-carbonitrile]", "values": [{"measurement": "inhibitory activity towards histone acetyltransferase p300", "setting": "[1]", "result": "no inhibitory activity"}, {"measurement": "OLM acquisition phase: object exploration (seconds)", "setting": "aged C57Bl/6J male mice; 10 mg/kg and 20 mg/kg i.p. 30 minutes before acquisition", "result": "no difference in object exploration"}, {"measurement": "OLM acquisition phase, pre/post-trial experiment: group differences", "setting": "aged C57Bl/6J male mice; 10 mg/kg i.p.", "result": "no significant group differences"}, {"measurement": "OLM retention: memory performance (exploration of novel versus familiar location)", "setting": "aged C57Bl/6J male mice; 10 mg/kg i.p. 30 minutes before acquisition, 10 mg/kg", "result": "explored the novel object significantly (measured in seconds) more than the familiar object; also recorded: induced memory improvements"}, {"measurement": "OLM performance, pre-trial administration", "setting": "aged C57Bl/6J male mice; 10 mg/kg i.p. 30 minutes prior to acquisition phase, tested 24 h", "result": "improved performance in the OLM task"}, {"measurement": "OLM performance, post-trial administration", "setting": "aged C57Bl/6J male mice; 10 mg/kg i.p. immediately after acquisition, tested 24 h", "result": "improved performance in the OLM task"}, {"measurement": "OLM acquisition phase: total exploration time", "setting": "aged C57Bl/6J male mice; 20 mg/kg i.p.", "result": "decrease in total exploration time"}, {"measurement": "OLM retention: memory performance (exploration of novel versus familiar location)", "setting": "aged C57Bl/6J male mice; 20 mg/kg i.p. 30 minutes before acquisition, 20 mg/kg", "result": "performed similar to aged controls; also recorded: but not 20 mg/kg induced memory improvements"}, {"measurement": "changes in Arc", "setting": "Arc", "result": "did not observe changes in Arc"}, {"measurement": "neuronal H3K9me3 level at 20 nM", "setting": "H3K9me3; 20 nM, 24 hours", "result": "greatest decrease"}, {"measurement": "neuronal H3K9me3 level", "setting": "H3K9me3; 24 hours treatment, 14 DIV hippocampal neurons", "result": "dose-dependent decrease"}]}]}
